# Results reported in paper PMC8951032, “Study of Biological Activities and ADMET-Related Properties of Novel Chlorinated N-arylcinnamamides” (International Journal of Molecular Sciences, 2022).
# Read-outs that look alike come from different tables or passages of the source.
# Experiments:
# [1] = system: vancomycin-resistant E. faecalis (VRE) 725B; test: In vitro antienterococcal activity, microtitration broth MIC; type: cell-based, Enterococcus faecalis; conditions: 24 h
# [2] = system: S. aureus, MRSA, E. faecalis, VRE, M. smegmatis, M. marinum; test: In vitro antimicrobial screening, all tested strains; type: cell-based; conditions: antibacterial/antimycobacterial screening
# [3] = system: Staphylococcus aureus ATCC 29213; test: In vitro antistaphylococcal activity, microtitration broth MIC; type: cell-based; conditions: for MIC: Staphylococcus aureus
# [4] = system: Mycobacterium marinum CAMP 5644; test: In vitro antimycobacterial activity, broth dilution MIC; type: cell-based; conditions: CAMP5644, 504 h
# [5] = system: methicillin-resistant S. aureus (MRSA) 63718; test: In vitro antistaphylococcal activity, microtitration broth MIC; type: cell-based; conditions: Staphylococcus aureus
# [6] = system: Mycobacterium smegmatis ATCC 700084; test: In vitro antimycobacterial activity, broth dilution MIC; type: cell-based; conditions: Mycolicibacterium smegmatis
# [7] = system: methicillin-resistant S. aureus SA 3202; test: In vitro antistaphylococcal activity, microtitration broth MIC; type: cell-based; conditions: Staphylococcus aureus
# [8] = system: vancomycin-resistant E. faecalis (VRE) 342B; test: In vitro antienterococcal activity, microtitration broth MIC; type: cell-based, Enterococcus faecalis; conditions: 24 h
# [9] = Lipophilicity determination by RP-HPLC (log k, log D); type: physicochemical; conditions: for log k: MeOH 72%/H2O 28%; for log D6.5: MeOH 72%/acetate buffered saline pH 6.5; for log D7.4: MeOH 72%/acetate buffered saline pH 7.4
# Procedure: In addition to the mentioned ADME profile, it is responsible for interactions with biological targets. Lipophilicity is recognized as one of the most important parameters influencing ADME and bioactivity and is also part, e.g., of Lipinski’s Rule of Five (Ro5). This thermodynamic parameter describing the molecule’s affinity for an aqueous or relatively lipophilic environment can be characterized by the logarithm of the partition coefficient (log P). In this study, lipophilicity was measured by reversed-phase high-performance liquid chromatography (RP-HPLC) under isocratic conditions with methanol as the organic modifier in the aqueous mobile phase and the logarithm of the capacity factor k was calculated, which is used as the lipophilicity index converted to the log P scale. In addition to the log k values, the logarithm of the distribution coefficient DpH at pH 6.5 and 7.4 was determined to clarify the behavior of the compounds under physiological conditions and possible ionization. Instead of water, a buffer of suitable pH was used as part of the mobile phase. In addition to the above-mentioned experimental methods, commercially available ChemBioDraw Ultra 13.0 and ACD/Percepta ver. 2012 programs were used to calculate the lipophilicity values of all prepared compounds.
# A HPLC separation module Waters Alliance 2695 XE equipped with a Waters Dual Absorbance Detector 2486 (Waters Corp., Milford, MA, USA) was used. A chromatographic column Symmetry® C18 5 μm, 4.6 × 250 mm, Part No. W21751W016 (Waters Corp., Milford, MA, USA) was used. The HPLC separation process was monitored by Empower® 3 Chromatography Manager Software (Waters Corp.). Isocratic elution by a mixture of MeOH p.a. (72%) and H2O-HPLC Mili-Q grade (28%) as a mobile phase was used for the determination of capacity factor k. Isocratic elution by a mixture of MeOH p.a. (72%) and acetate buffered saline (pH 7.4 and pH 6.5) (28%) as a mobile phase was used for the determination of distribution coefficient expressed as D7.4 and D6.5. The total flow of the column was 1.0 mL/min, injection 20 μL, column temperature 40 °C, and sample temperature 10 °C. The detection wavelength of 210 nm was chosen. A KI methanolic solution was used for the determination of the dead times (tD). Retention times (tR) were measured in minutes. The capacity factors k were calculated according to the formula k = (tR − tD)/tD, where tR is the retention time of the solute, and tD is the dead time obtained using an unretained analyte. The distribution coefficients DpH were calculated according to the formula DpH = (tR − tD)/tD. Each experiment was repeated three times.
# [10] = system: human synovial cell line SW982; test: In vitro cell viability, CCK-8; type: cell-based; conditions: 10% fetal bovine serum
# Procedure: (§1) The effect of the compounds on viability of eukaryotic cells was evaluated on human leukemia cell line THP-1, human synovial cell line SW982, and isolated primary porcine monocytes-delivered macrophages (MDM). The general cytotoxic effect was studied on THP-1 cells in the serum-free medium (only THP-1 as the only cells used in this study are able to survive in serum-free medium). Most of the compounds had no cytotoxic effect on THP-1 cells. […] This could be caused by the direct interaction of such compounds with serum proteins or by the effect of mitogens, cytokines, and hormones present in the serum. Obviously, the full medium is closer to physiological conditions in living organisms, so it can be assumed that these compounds could be non-toxic there.
# (§2) Human monocytic leukemia cell line THP-1 and human synovial cell line SW982 were purchased from the European Collection of Cell Cultures (ECACC, Salisbury, UK) and were used for determination of the influence of test compounds on cell viability, as described previously. These cell lines represent typical suspension and adherent cells, respectively. They were cultivated with test substances in the presence or absence of fetal bovine serum (FBS) in the cultivation medium, and the relative cell viability (the ratio between cells treated with compounds and cells treated only with DMSO) was determined by CCK-8 kit (Sigma) after 24 h.
# [11] = system: human monocytic leukemia cell line THP-1; test: In vitro cell viability, CCK-8; type: cell-based; conditions: for IC50: Homo sapiens, THP-1
# Procedure: as §1, §2
# [12] = system: vancomycin-resistant E. faecalis (VRE) 368; test: In vitro antienterococcal activity, microtitration broth MIC; type: cell-based, Enterococcus faecalis
# [13] = read-out: log(1/MIC [M]) VRE3 (converted)
# [14] = ATCC29213, 24 h, S. aureus ATCC 29213, read-out: log(1/MIC [M]) SA (converted)
# [15] = ATCC29213, S. aureus ATCC 29213, 24 h, read-out: MIC SA
# [16] = M. marinum CAMP 5644, 21 days, read-out: MIC MM
# [17] = M. marinum CAMP 5644, read-out: log(1/MIC [M]) MM (converted)
# [18] = 24 h, MRSA 63718, read-out: log(1/MIC [M]) MRSA1 (converted)
# [19] = MRSA 63718, 24 h, read-out: MIC MRSA1
# [20] = ATCC700084, 72 h, M. smegmatis ATCC 700084, three days, read-out: MIC MS
# [21] = ATCC700084, M. smegmatis ATCC 700084, read-out: log(1/MIC [M]) MS (converted)
# [22] = 24 h, MRSA SA 3202, read-out: log(1/MIC [M]) MRSA3 (converted)
# [23] = MRSA SA 3202, 24 h, read-out: MIC MRSA3
# [24] = read-out: log(1/MIC [M]) VRE1 (converted)
# [25] = 24 h, read-out: IC50 SW982 10% FSB
# [26] = read-out: log(1/IC50 [M]) SW982 10% FSB (converted)
# [27] = 10% fetal bovine serum, 24 h, read-out: IC50 THP-1 10% FSB
# [28] = 10% fetal bovine serum, read-out: log(1/IC50 [M]) THP-1 10% FSB (converted)
# [29] = serum-free medium, 24 h, read-out: IC50 THP-1 SFM
# [30] = serum-free medium, read-out: log(1/IC50 [M]) THP-1 SFM (converted)
# [31] = 24 h, VRE 368, read-out: log(1/MIC [M]) VRE2 (converted)
# [32] = VRE 368, 24 h, read-out: MIC VRE2
SMILES,MIC ([1]; read-out: MIC VRE3) [M],"MIC [1, 13] [M]","MIC [3, 14] [M]","MIC [3, 15] [M]","MIC [4, 16] [M]","MIC [4, 17] [M]","MIC [5, 18] [M]","MIC [5, 19] [M]","MIC [6, 20] [M]","MIC [6, 21] [M]","MIC [7, 22] [M]","MIC [7, 23] [M]",MIC ([8]; read-out: MIC VRE1) [M],"MIC [8, 24] [M]",log k [9],log D6.5 [9],log D7.4 [9],"IC50 [10, 25] [M]","IC50 [10, 26] [M]","IC50 [11, 27] [M]",other results
"O=C(/C=C/c1ccc(Cl)c(Cl)c1)Nc1ccc(C(F)(F)F)cc1 [2j, (2E)-3-(3,4-Dichlorophenyl)-N-[4-(trifluoromethyl)phenyl]prop-2-enamide]",1.11e-05,1.12e-05,6.92e-07,6.94e-07,2.78e-06,2.75e-06,3.72e-07,3.71e-07,2.78e-06,2.75e-06,6.92e-07,6.94e-07,1.11e-05,1.12e-05,1.0364,1.0370,0.9945,> 1e-05,> 1e-05,> 1e-05,"antimicrobial activity (in words) [2]: active; activity against S. aureus and MRSA isolates (in words) [3]: submicromolar; IC50 [11, 28]: > 1e-05 M; IC50 [11, 29]: 9e-07 ± 1e-06 M; IC50 [11, 30]: 8.91e-07 M; MIC [12, 31]: 1.12e-05 M; MIC [12, 32]: 1.11e-05 M"
"O=C(/C=C/c1ccc(Cl)c(Cl)c1)Nc1ccc(OC(F)(F)F)cc1 [2k, (2E)-3-(3,4-Dichlorophenyl)-N-[4-(trifluoromethoxy)phenyl]prop-2-enamide]",2.13e-05,2.14e-05,2.95e-07,1.33e-06,2.66e-06,2.95e-07,1.32e-06,1.33e-06,1.06e-05,2.34e-06,1.32e-06,1.33e-06,2.13e-05,2.14e-05,1.0513,1.0544,1.0053,> 1e-05,> 1e-05,> 1e-05,"antimicrobial activity (in words) [2]: active; reduction of cell viability, CCK-8 assay ([11]; 2k 1.0 µM, serum-free medium): 50%; IC50 [11, 28]: > 1e-05 M; IC50 [11, 29]: 1e-06 ± 1e-06 M; IC50 [11, 30]: 5.01e-07 M; MIC [12, 31]: 4.27e-05 M; MIC [12, 32]: 4.25e-05 M"
"O=C(/C=C/c1ccc(Cl)cc1)Nc1cc(Cl)cc(Cl)c1 [1p, (2E)-3-(4-Chlorophenyl)-N-(3,5-dichlorophenyl)prop-2-enamide]",> 0.000783,> 0.000776,3.8e-07,3.83e-07,> 0.000783,> 0.000776,3.8e-07,3.83e-07,2.45e-05,2.45e-05,7.59e-07,7.65e-07,> 0.000783,> 0.000776,1.1899,1.1368,1.1366,> 1e-05,> 1e-05,> 1e-05,"antimicrobial activity (in words) [2]: showed activity; activity against S. aureus and MRSA isolates (in words) [3]: submicromolar; IC50 [11, 28]: > 1e-05 M; IC50 [11, 29]: 2.5e-06 ± 1.1e-06 M; IC50 [11, 30]: 2.51e-06 M; MIC [12, 31]: > 0.000776 M; MIC [12, 32]: > 0.000783 M"
"O=C(/C=C/c1ccc(Cl)c(Cl)c1)Nc1ccccc1 [2a, (2E)-3-(3,4-Dichlorophenyl)-N-phenylprop-2-enamide]",> 0.000876,> 0.000871,1.38e-05,1.36e-05,0.000876,0.000871,> 0.000871,> 0.000876,1.36e-05,1.38e-05,> 0.000871,> 0.000876,> 0.000876,> 0.000871,0.6199,0.6669,0.6354,> 1e-05,> 1e-05,> 1e-05,"IC50 [11, 28]: > 1e-05 M; IC50 [11, 29]: 7.5e-06 ± 1e-06 M; IC50 [11, 30]: 7.59e-06 M; MIC [12, 31]: > 0.000871 M; MIC [12, 32]: > 0.000876 M"
